Data published in patent publication US20260347372A1, “SMALL MOLECULE INHIBITORS OF KRAS G12D MUTANT” (MERCK SHARP & DOHME LLC, priority 2023, published 2026).

What was measured:
PANC08.13 cells = molecular target: T1, PANC08.13 cells (Homo sapiens, UniProt P01116, G12D); experiment: Cellular phospho-ERK assay, PANC08.13 cells (KRAS G12D); type: cell-based; conditions: 2 hours, read-out: PANCO 813 pERK IC50
T1 construct: p-ERK/total ERK AlphaSureFire read-out
Description: Procedure for Cellular Phospho-ERK Assay in KRAS Wild Type and Mutant (G12D, G12V) Cell Lines
PANC08.13 cells (ATCC® CRL-2551™), containing homozygous KRAS-G12D activating mutation, were cultured in growth medium made of RPMI1640-GlutaMAX™-I (ThermoFisher Scientific 61870) containing 15% heat inactivated fetal bovine serum (ThermoFisher Scientific 10091148)). AsPC-1 cells (ATCC® CRL-1682™), containing homozygous KRAS-G12D activating mutation, were cultured in T150 flask in growth medium (RPMI medium 1640-GlutaMAX™-I (ThermoFisher Scientific 61870) containing 10% fetal bovine serum (ThermoFisher Scientific 10091148)).
Cells for the assay were harvested in growth medium after TrypLE (ThermoFisher scientific 12604021) digestion and were seeded in a 384-well collagen coated cell culture plate (Corning 356702) at a density of 10,000-15,000 cells/20 μL/well, and incubated at 37° C., 5% CO2 overnight. The compound (with 10 mM stock concentration) dose-response titrations were prepared [30 μM final ERK detection assay concentration and 1:3 dilutions, 10-point dose response] and appropriate amounts (270 nL) of test compounds were dispensed in a 384-well intermediate plate using an Echo 550 liquid handler. 30 μL/well of RPMI medium 1640-GlutaMAX™-I was added to the intermediate plate and the contents of the intermediate plate (10 μL/well) were then transferred to the 384-well collagen coated cell culture plate, which was incubated at 37° C., 5% CO2 for 2 hours. After removal of medium from the collagen coated cell culture plate, cells were lysed in lysis buffer from Alpha SureFire® Ultra™ Multiplex p-ERK and total ERK assay kit (PerkinElmer MPSU-PTERK) containing Halt™ Protease and Phosphatase inhibitor cocktail (ThermoFisher Scientific 78446) at room temperature with constant shaking at 300 rpm for 30 minutes. The cell lysates were then transferred to an OptiPlate-384 plate (PerkinElmer 6005620), and the phosphorylation of ERK (p-ERK) and total ERK levels were detected by Alpha SureFire® Ultra™ Multiplex p-EEK kit and total ERK assay kit (PerkinElmer MPSU-PTERK) following the manufacturer's protocol. Assay plates were read on a EnVision Multimode Plate Reader (PerkinElmer), and the ratio of p-ERK vs. total ERK in each well was used as the final readout. Dose response curves were analyzed using a 4-parameter logistic model to calculate IC50 values using Spotfire software.

KRAS G12C = KRAS G12C (Homo sapiens, UniProt P01116, C118S/C51S/C80L/G12C); experiment: SOS-catalyzed nucleotide exchange assay, KRAS G12C (Procedure A); type: biochemical; conditions: GNE
Sequence of KRAS G12C (P01116 with tags, fused parts or gaps isoform P01116-2 G12C/C51S/C80L/C118S): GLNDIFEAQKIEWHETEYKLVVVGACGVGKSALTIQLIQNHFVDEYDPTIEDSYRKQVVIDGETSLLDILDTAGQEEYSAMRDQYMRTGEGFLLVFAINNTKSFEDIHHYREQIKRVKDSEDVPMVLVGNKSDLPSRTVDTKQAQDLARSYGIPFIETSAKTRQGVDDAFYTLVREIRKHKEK
Summary of the method: (§1)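 Preformed TR-FRET complex of biotinylated KRAS (G12C carries C51S/C80L/C118S; others native sequence), Bodipy-GDP and Tb-streptavidin preincubated with compound 60 min at room temperature. Exchange started with human SOS plus 3 mM GTP for 60 min (G13D 30 min). Final RAS/SOS: G12C 3/40 nM; WT, G12D 1/40 nM; G13D 1.25/0 nM. 520/495 nm ratio normalised, fitted to four-parameter logistic.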

KRAS WT = KRAS WT (Homo sapiens, UniProt P01116); experiment: SOS-catalyzed nucleotide exchange assay, KRAS WT (Procedure A); type: biochemical; conditions: GNE
Sequence of KRAS WT (P01116 with tags, fused parts or gaps isoform P01116-2): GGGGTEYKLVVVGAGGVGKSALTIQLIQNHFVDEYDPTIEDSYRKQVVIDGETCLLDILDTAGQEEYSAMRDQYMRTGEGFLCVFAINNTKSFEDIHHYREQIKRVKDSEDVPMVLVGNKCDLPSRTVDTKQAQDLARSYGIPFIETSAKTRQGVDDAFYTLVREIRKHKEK
Summary of the method: as §1

KRAS G12V = KRAS G12V (Homo sapiens, UniProt P01116, G12V); experiment: SOS-catalyzed nucleotide exchange assay, KRAS G12V (Procedure A); type: biochemical; conditions: GNE
Sequence of KRAS G12V (P01116 with tags, fused parts or gaps isoform P01116-2 G12V): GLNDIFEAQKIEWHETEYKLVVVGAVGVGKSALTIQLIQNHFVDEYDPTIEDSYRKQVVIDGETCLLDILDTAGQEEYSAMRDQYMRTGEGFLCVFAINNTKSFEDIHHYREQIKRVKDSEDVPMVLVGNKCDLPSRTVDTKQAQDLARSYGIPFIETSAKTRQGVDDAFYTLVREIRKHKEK
Summary of the method: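 Biotinylated KRAS G12V was loaded with Bodipy-GDP alongside Terbium-streptavidin to form a TR-FRET complex, which was preincubated with compounds for 60 minutes in 384-well plates. Human SOS protein and unlabeled GTP were then added for 90 minutes, giving final concentrations of 1.25 nM KRAS-G12V, 160 nM SOS and 3 mM GTP. The 520/495 nm emission ratio was read on an Envision.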

AsPC-1 cells = molecular target: T2, AsPC-1 cells (Homo sapiens, UniProt P01116, G12D); experiment: Cellular phospho-ERK assay, AsPC-1 cells (KRAS G12D); type: cell-based; conditions: 2 hours, read-out: AsPC1 pERK IC50
T2 construct: p-ERK/total ERK AlphaSureFire read-out
T2 sequence (P01116 1-188 isoform P01116-2 G12D): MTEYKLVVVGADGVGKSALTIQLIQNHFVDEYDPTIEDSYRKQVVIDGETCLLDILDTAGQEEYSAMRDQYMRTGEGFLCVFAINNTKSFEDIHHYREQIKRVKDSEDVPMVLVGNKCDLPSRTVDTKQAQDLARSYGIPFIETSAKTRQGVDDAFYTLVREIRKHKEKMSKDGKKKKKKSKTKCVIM
Summary of the method: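 PANC08.13 or AsPC-1 cells (homozygous KRAS G12D) were seeded overnight, then treated for 2 h at 37 °C with a 10-point 1:3 titration from 30 μM. Lysates were assayed by AlphaLISA SureFire for p-ERK and total ERK. IC50 came from a 4-parameter fit of the p-ERK/total ERK ratio.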

HRAS = HRAS (Homo sapiens, UniProt P01112); experiment: SOS-catalyzed nucleotide exchange assay, HRAS (Procedure A); type: biochemical; conditions: GNE
Sequence of HRAS (P01112 with tags, fused parts or gaps): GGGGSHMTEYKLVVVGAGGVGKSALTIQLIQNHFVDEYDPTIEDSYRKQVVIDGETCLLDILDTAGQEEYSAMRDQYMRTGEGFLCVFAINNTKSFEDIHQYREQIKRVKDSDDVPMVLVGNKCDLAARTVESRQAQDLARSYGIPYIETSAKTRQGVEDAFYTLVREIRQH
Summary of the method: (§2)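 Compounds were preincubated 60 min with a biotinylated RAS·Bodipy-GDP/Tb-streptavidin TR-FRET complex, and exchange was started with human SOS plus 3 mM GTP at RT. RAS/SOS: G12C 3 nM/40 nM, WT and G12D 1 nM/40 nM, all 60 min; G13D 1.25 nM/0 nM, 30 min. 520/495 ratio normalized to DMSO and saturating inhibitor, four-parameter fit.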

KRAS G13D = KRAS G13D (Homo sapiens, UniProt P01116, G13D); experiment: SOS-catalyzed nucleotide exchange assay, KRAS G13D (Procedure A); type: biochemical; conditions: GNE
Sequence of KRAS G13D (P01116 with tags, fused parts or gaps isoform P01116-2 G13D): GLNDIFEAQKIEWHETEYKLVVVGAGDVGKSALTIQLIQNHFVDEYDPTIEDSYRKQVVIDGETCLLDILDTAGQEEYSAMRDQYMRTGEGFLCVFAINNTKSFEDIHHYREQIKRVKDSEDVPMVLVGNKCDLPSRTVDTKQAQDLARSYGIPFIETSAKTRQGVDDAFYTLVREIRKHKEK
Summary of the method: as §1

KRAS G12D = KRAS G12D (Homo sapiens, UniProt P01116, G12D); experiment: SOS-catalyzed nucleotide exchange assay, KRAS G12D (Procedure A); type: biochemical; conditions: guanine nucleotide exchange (GNE)
Sequence of KRAS G12D (P01116 with tags, fused parts or gaps isoform P01116-2 G12D): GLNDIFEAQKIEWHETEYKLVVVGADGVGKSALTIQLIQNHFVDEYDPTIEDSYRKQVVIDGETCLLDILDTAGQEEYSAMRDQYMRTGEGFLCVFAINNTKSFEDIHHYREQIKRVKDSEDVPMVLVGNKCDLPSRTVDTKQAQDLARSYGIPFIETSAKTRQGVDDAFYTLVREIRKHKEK
Summary of the method: as §1

NRAS = NRAS (Homo sapiens, UniProt P01111); experiment: SOS-catalyzed nucleotide exchange assay, NRAS (Procedure A); type: biochemical; conditions: GNE
Sequence of NRAS (P01111 with tags, fused parts or gaps): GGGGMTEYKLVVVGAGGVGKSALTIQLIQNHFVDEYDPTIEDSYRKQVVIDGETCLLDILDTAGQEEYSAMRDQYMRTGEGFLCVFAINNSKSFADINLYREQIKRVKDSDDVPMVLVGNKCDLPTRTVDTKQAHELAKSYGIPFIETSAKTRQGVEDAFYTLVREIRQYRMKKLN
Summary of the method: as §2

T1 sequence (P01116 1-188 isoform P01116-2 G12D): as the sequence (P01116 1-188 isoform P01116-2 G12D) above

Row | Compound | IC50 (PANC08.13 cells) [µM] | IC50 (KRAS G12C) [µM] | IC50 (KRAS WT) [µM] | IC50 (KRAS G12V) [µM] | IC50 (AsPC-1 cells) [µM] | IC50 (HRAS) [µM] | IC50 (KRAS G13D) [µM] | IC50 (KRAS G12D) [µM] | IC50 (NRAS) [µM]
1 | Nc1nc2c(-c3nccc4c3sc3nc(OC[C@@]56CCCN5C[C@H](F)C6)nc(N5C[C@H]6CC[C@@H](C5)N6)c34)c(F)cc(F)c2o1 [Ex-15, 4-(4-((1R,5S)-3,8-diazabicyclo[3.2.1]octan-3-yl)-2-(((2R,7aS)-2-fluorotetrahydro-1H-pyrrolizin-7a(5H)-yl)methoxy)pyrido[4′,3′:4,5]thieno [2,3-d]pyrimidin-8-yl)-5,7-difluorobenzo[d]oxazol-2-amine] | > 10 | > 11.1 | > 11.1 | > 11.1 | – | > 11.1 | > 11.1 | 4.99 | > 11.1
2 | N#Cc1c(N)sc2c(F)ccc(-c3nccc4c3sc3nc(OC[C@@]56CCCN5C[C@H](F)C6)nc(N5C[C@H]6CC[C@@H](C5)N6)c34)c12 [Ex-17, 4-(4-((1R,5S)-3,8-diazabicyclo[3.2.1]octan-3-yl)-2-(((2R,7aS)-2-fluorotetrahydro-1H-pyrrolizin-7a(5H)-yl)methoxy)pyrido[4′,3′:4,5]thieno [2,3-d]pyrimidin-8-yl)-2-amino-7-fluorobenzo[b] thiophene-3-carbonitrile] | 1.64 | > 11.1 | > 11.1 | > 11.1 | – | > 11.1 | > 11.1 | 0.024 | > 11.1
3 | Cn1c2nc(OC[C@]3(CO)CC3(F)F)nc(N3C[C@H]4CC[C@@H](C3)N4)c2c2ccnc(-c3ccc(F)c4sc(N)c(C#N)c34)c21 [Ex-62, 4-(4-((1R,5S)-3,8-diazabicyclo[3.2.1]octan-3-yl)-2-(((R)-2,2-difluoro-1-(hydroxymethyl)cyclopro-pyl)methoxy)-9-methyl-9H-pyrido[4′,3′:4,5]pyrrolo[2,3-d]pyrimidin-8-yl)-2-amino-7-fluorobenzo[b]thiophene-3-carbonitrile] | > 10 | 8.49 | > 11.1 | > 11.1 | – | > 11.1 | 1.54 | 0.645 | > 11.1
4 | Cc1cc2[nH]ncc2c(-c2nccc3c4c(N5CC[C@H]6NCC[C@H]65)nc(OC[C@@]56CCCN5C[C@H](F)C6)nc4n(C)c23)c1C(F)(F)F [Ex-66, 2-(((2R,7aS)-2-fluorotetrahydro-1H-pyrrolizin-7a(5H)-yl)methoxy)-4-((3aR,6aR)-hexahydropyrrolo[3,2-b]pyrrol-1(2H)-yl)-9-methyl-8-(6-methyl-5-(trifluoromethyl)-1H-indazol-4-yl)-9H-pyrido[4′,3′:4,5]pyrrolo[2,3-d]pyrimidine] | 1.26 | 1.69 | 6.33 | > 11.1 | – | > 11.1 | 1.5 | 0.202 | > 11.1
5 | Cc1cc2[nH]ncc2c(-c2nccc3c2oc2nc(OC[C@@]45CCCN4C[C@H](F)C5)nc(N4C[C@H]5CC[C@@H](C4)N5)c23)c1C(F)(F)F [Ex-78, 4-((1R,5S)-3,8-diazabicyclo[3.2.1]octan-3-yl)-2-(((2R,7aS)-2-fluorotetrahydro-1H-pyrrolizin-7a(5H)-yl)methoxy)-8-(6-methyl-5-(trifluoromethyl)-1H-indazol-4-yl)pyrido[4′,3′:4,5]furo[2,3-d]pyrimidine] | 2.65 | > 11.1 | > 11.1 | > 11.1 | – | > 11.1 | > 11.1 | 0.728 | > 11.1

Further lines, results first:

Row | IC50 (PANC08.13 cells) [µM] | IC50 (KRAS G12C) [µM] | IC50 (KRAS WT) [µM] | IC50 (KRAS G12V) [µM] | IC50 (AsPC-1 cells) [µM] | IC50 (HRAS) [µM] | IC50 (KRAS G13D) [µM] | IC50 (KRAS G12D) [µM] | IC50 (NRAS) [µM] | Compound
6 | 0.139 | 0.652 | 6.5 | 3.56 | 0.455 | > 11.1 | 1.64 | 0.0143 | > 11.1 | Cc1cc2[nH]ncc2c(-c2nccc3c4c(N5C[C@H]6CC[C@@H](C5)N6)nc(OC[C@@]56CCCN5C[C@H](F)C6)nc4n(C)c23)c1C(F)(F)F (single isomer, unassigned) [Ex-1]
7 | 0.315 | 1.55 | – | – | 0.49 | > 11.1 | 0.451 | 0.0407 | > 11.1 | C#Cc1cccc2cccc(-c3nccc4c5c(N6C[C@H]7CC[C@@H](C6)N7)nc(OC[C@@]67CCCN6C[C@H](F)C7)nc5n(C)c34)c12 [Ex-9, 4-((1R,5S)-3,8-diazabicyclo[3.2.1]octan-3-yl)-8-(8-ethynylnaphthalen-1-yl)-2-(((2R,7aS)-2-fluoro-tetrahydro-1H-pyrrolizin-7a(5H)-yl)methoxy)-9-methyl-9H-py-rido[4′,3′:4,5]pyrro-lo[2,3-d]pyrimidine]
8 | 2.87 | > 11.1 | > 11.1 | > 11.1 | – | > 11.1 | > 11.1 | 1.02 | > 11.1 | Cc1cc2[nH]ncc2c(-c2nccc3c2sc2nc(OC[C@]4(CO)CC4(F)F)nc(N4C[C@H]5CC[C@@H](C4)N5)c23)c1C(F)(F)F [Ex-25, ((1R)-1-(((4-((1R,5S)-3,8-diazabicyclo[3.2.1]octan-3-yl)-8-(6-methyl-5-(trifluoromethyl)-1H-indazol-4-yl)pyrido[4′,3′:4,5]thieno[2,3-d]pyrimidin-2-yl)oxy)methyl)-2,2-difluorocyclopropyl)methanol]
9 | 3.97 | > 11.1 | > 11.1 | > 11.1 | – | > 11.1 | 4.88 | 0.583 | > 11.1 | Cc1cc2[nH]ncc2c(-c2nccc3c4c(N5C[C@H]6CC[C@@H](C5)N6)nc(OC[C@]5(CO)CC5(F)F)nc4n(C)c23)c1C(F)(F)F [Ex-53, ((1R)-1-(((4-((1R,5S)-3,8-diazabicyclo[3.2.1]octan-3-yl)-9-methyl-8-(6-methyl-5-(trifluoromethyl)-1H-indazol-4-yl)-9H-pyrido[4′,3′:4,5]pyrrolo[2,3-d]pyrimidin-2-yl)oxy)methyl)-2,2-difluorocyclopro-pyl)methanol]
10 | > 10 | > 11.1 | > 11.1 | > 11.1 | – | > 11.1 | > 11.1 | 0.0737 | > 11.1 | Cn1c2nc(OC[C@]3(CO)CC3(F)F)nc(N3C[C@H]4CC[C@@H](C3)N4)c2c2ccnc(-c3c(F)cc(F)c4sc(N)c(C#N)c34)c21 [Ex-63, 4-(4-((1R,5S)-3,8-diazabicyclo[3.2.1]octan-3-yl)-2-(((R)-2,2-difluoro-1-(hydroxymethyl)cyclopro-pyl)methoxy)-9-methyl-9H-pyrido[4′,3′:4,5]pyrrolo[2,3-d]pyrimidin-8-yl)-2-amino-5,7-difluorobenzo[b]thiophene-3-carbonitrile]
